Test results from ChEMBL document CHEMBL1144145, “Sesquiterpene polyol esters from the leaves of maytenus macrocarpa” (J Nat Prod, 1999).

How the values were obtained:
Format in all cases: functional, cell-based
[1] = tested on: P388; assay: Cytotoxicity against mouse P388 cells by […]
[2] = tested on: A549; assay: Cytotoxicity against human A549 cells by […]
[3] = tested on: HT-29; assay: Cytotoxicity against human HT-29 cells by […]
[4] = Cytotoxicity against human MEL28 cells by […]; conditions: SK-MEL-28

Measured: IC50

CC(=O)OC[C@@]12[C@@H](OC(=O)c3ccccc3)CC[C@](C)(O)[C@]13OC(C)(C)[C@H]([C@H](OC(C)=O)[C@H]2OC(=O)c1ccccc1)[C@H]3OC(C)=O
> 25 µg/mL: all assays above
